Assay results published in US20260109664A1, “COMPOUNDS FOR USE AS MEDICAMENTS” (priority 2022, published 2026).

Assays:
[1] = tested on: C. difficile 630Δerm; assay: Toxicity growth curves (OD590 nm) of C. difficile monoculture in minimal media; format: cell-based, Clostridioides difficile; conditions: 8-hour growth curve; for effect on the growth of C. difficile (growth curve, OD590 nm): compound 6.6 mM in MM with 1% DMSO, FIGS. 1a to 5b
Protocol: (§1) Compounds EX1 to EX5 were separately tested to determine their toxicity to C. difficile and E. coli.
(§2) Each compound was dissolved to 6.6 mM in minimal media (MM) with 1% DMSO based on the MM described by Cartman et al. in Appln. Environ. Microbiol, 2010, 76, 1103 and the concentration was matched in a 1:1 ratio of the compound to the substrate p-HPA.
(§3) To determine growth rates of C. difficile and E. coli in the presence of compounds EX1 to EX5, three colonies of C. difficile or three colonies of E. coli were used to inoculate a primary culture of 10 mL MM in 50 cm^3 vented tissue culture flasks (Thermo Scientific). Following overnight incubation on a shaking platform at 50 rpm, the primary culture was back diluted in MM to OD590 nm 0.5 using a Fisherbrand™ Digital Colorimeter model 4.5 (Fisher Scientific). 1 ml of the OD590 nm 0.5 culture was inoculated into 10 ml of MM in 50 cm^3 vented tissue culture flasks with and without 4-hydroxyphenylacetic acid and the relevant compound (EX1 to EX5).
(§4) OD590 nm readings were determined every hour for eight hours using a Fisherbrand™ Digital Colorimeter model 4.5 (Fisher Scientific).
(§5) Growth curves denoting growth over an 8-hour time period for C. difficile and E. coli in MM with the presence of 4-hydroxyphenylacetic acid and inhibitors EX1 to EX5, each at 6.6 mM. Absorbance was measured at OD590 nm. *p<0.05, **p<0.01, samples represent a minimum of three biological replicates graphed in GraphPad prism (v9). Raw absorbance was normalised using a blank MM control.

[2] = tested on: E. coli; assay: Toxicity growth curves (OD590 nm) of E. coli monoculture in minimal media; format: cell-based, Escherichia coli; conditions: compound 6.6 mM in MM with 1% DMSO, 8-hour growth curve, FIGS. 1a to 5b
Protocol: as §1, §2, §3, §4, §5

[3] = tested on: production of 4-methylphenol by C. difficile; assay: HPLC of C. difficile monocultures: 4-methylphenol (p-cresol) production; format: cell-based, Clostridioides difficile; conditions: 630Δerm, 8 hours, 1.5 mg/ml p-HPA with matched 6.6 mM compound, normalised to OD590 nm, FIG. 14
Protocol: C. difficile monocultures were established in the presence of the following compounds EX1, EX3, EX5 and EX8.
Samples of 630Δerm were collected following growth in minimal media with 1% DMSO v/v for 8 hours with 1.5 mg/ml p-HPA with matched (6.6 mM) concentrations of compounds EX1, EX3, EX5 and EX8. At the time of sample collection, the OD590 nm of the culture was measured. Samples were immediately filter sterilised using 0.22 μm filters, then frozen at −80° C. prior to HPLC analysis.
The filter-sterilized samples were transferred to HPLC vials and analysed immediately by injecting onto the HPLC column. Separations were achieved by utilizing an Acclaim 120 (Thermofisher), C18, 5 μm (4.6×150 mm), with the mobile phase consisting of ammonium formate (10 mM, pH 2.7) and […] (v/v; 50:50) at a flow rate of 1400 μl/min. p-HPA and p-cresol were detected by the diode array detector (PDA; DAD 3000) set at 280 nm. Peak identity was confirmed by measuring the retention time of commercially available p-HPA and p-cresol, and determination of absorbance spectra was performed using the DAD. A calibration curve of each compound was generated by Chromeleon (Dionex software) using known amounts of the reference standards (0-5 mg/ml) dissolved in media and injected onto the column, and the amount of p-HPA and p-cresol in the samples was determined. Samples from three independent biological replicates were analysed compared to media controls and standard curves. The limit of detection for p-HPA and p-cresol are 0.001 and 0.0005 mg/ml, respectively. The p-cresol concentration was normalised to growth by using the OD590 nm measured at the time of sample collection.

[4] = tested on: production of 4-methylphenol by C. difficile; assay: HPLC of C. difficile / E. coli co-culture: 4-methylphenol production; format: cell-based, Clostridioides difficile; conditions: 630Δerm and E. coli co-culture, no normalisation to OD590 nm, FIG. 15
Protocol: A C. difficile 630Δerm and E. coli co-culture was established (as per the methods previously described) in the presence of compound EX3.
Following co-culture, CFU assays were undertaken to determine relative survival of C. diff and E. coli. The remaining sample was filter sterilised (0.22 μm filters), then frozen at −80° C. prior to the HPLC analysis. HPLC analysis was carried out as described above (HPLC monocultures) with the exception of there being no normalisation of the 4-methylphenol concentration to OD590 nm.

[5] = tested on: C. difficile 630Δerm; assay: Co-culture of C. difficile and E. coli, CFU percentages: C. difficile; format: cell-based, Clostridioides difficile; conditions: MM + 6.6 mM p-HPA + 6.6 mM inhibitor, 1% DMSO, 14 hours co-culture, FIGS. 7 to 13
Protocol: (§6) Compounds EX1 to EX7 were tested to determine their ability to reduce the growth of C. difficile relative to E. coli.
(§7) C. difficile 630Δerm and E. coli were grown overnight in MM. C. difficile was back diluted to an OD590 nm of 0.2. 18 μl of the back dilution was added to 1.8 ml of the test conditions: MM, MM+6.6 mM p-HPA, MM+6.6 mM inhibitor, and MM+6.6 mM p-HPA+6.6 mM inhibitor, in a 24 well plate. Each inhibitor was dissolved in DMSO such that the final concentration in the 24 well plate was 1% v/v. C. difficile was grown for 8 hours before E. coli underwent back dilution to an OD590 nm of 0.2 and 18 μl was inoculated into the C. difficile wells to give the co-culture. The co-culture was grown for 14 hours. The proportion of the co-cultures made up by C. difficile and E. coli were determined by colony-forming units per millilitre (CFU/ml) assays with co-cultures plated on to BHIS plates in duplicate with selective media for each species. C. difficile was selected for using cycloserine (250 mg/l) and cefoxitin (8 mg/l) whilst E. coli was selected for using vancomycin (4 mg/l). […] CFUs were counted on the following day. CFU data is presented using CFU percentages which were calculated by dividing the number of CFUs for each species by the total number of CFUs for both E. coli and C. difficile and multiplying by 100. […] Data was analysed by linear regression carried using Stata17.

[6] = tested on: E. coli; assay: Co-culture of C. difficile and E. coli, CFU percentages: E. coli; format: cell-based, Escherichia coli; conditions: MM + 6.6 mM p-HPA + 6.6 mM inhibitor, 1% DMSO, 14 hours co-culture, FIGS. 7 to 13
Protocol: as §6, §7

NC(=O)Cc1ccc(O)cc1 [EX1]
effect on the growth of C. difficile (growth curve, OD590 nm) [1]: no effect on the growth
effect on the growth of E. coli (growth curve, OD590 nm) [2]: inhibited the growth
production of 4-methylphenol by C. difficile (HPLC, monoculture) [3]: reduced

OCCc1ccc(O)cc1 [EX2]
effect on the growth of C. difficile (growth curve, OD590 nm) [1]: toxic
effect on the growth of E. coli (growth curve, OD590 nm) [2]: toxic

N#CCc1ccc(O)cc1 [EX3]
effect on the growth of C. difficile when both compound and p-HPA present ([1]; compound 6.6 mM + p-HPA 6.6 mM (1:1) in MM): inhibited the growth
effect on the growth of E. coli (growth curve, OD590 nm) [2]: inhibited the growth
production of 4-methylphenol by C. difficile (HPLC, monoculture) [3]: reduced
production of 4-methylphenol by C. difficile (HPLC, co-culture with E. coli) [4]: reduced

O=C(O)CCc1ccc(O)cc1 [EX4]
effect on the growth of C. difficile (growth curve, OD590 nm) [1]: no effect on the growth

O=C(O)c1ccc(O)cc1 [EX5]
effect on the growth of C. difficile (growth curve, OD590 nm) [1]: no effect on the growth
effect on the growth of E. coli (growth curve, OD590 nm) [2]: no effect on the growth
production of 4-methylphenol by C. difficile (HPLC, monoculture) [3]: reduced

CC(C)(C(=O)O)c1ccc(O)cc1 [EX6]
inhibition of the growth of C. difficile in co-culture with E. coli (CFU percentage) [5]: able to inhibit the growth
impact on the growth of E. coli in co-culture with C. difficile [6]: little or no negative impact

O=C(O)Cc1ccc(O)cc1 [EX7]
inhibition of the growth of C. difficile in co-culture with E. coli (CFU percentage) [5]: able to inhibit the growth
impact on the growth of E. coli in co-culture with C. difficile [6]: little or no negative impact

COC(=O)Cc1ccc(O)cc1 [EX8]
production of 4-methylphenol by C. difficile (HPLC, monoculture) [3]: reduced
